From US10112935B2, “Indazolyl thiadiazolamines and related compounds for inhibition of Rho-associated protein kinase and the treatment of disease” (Lycera Corporation, priority 2015, dated 2018)

How the values were obtained:
[1] = molecular target: GST-tagged human ROCK1 catalytic domain 1-477 (Homo sapiens (Human), UniProt Q13464); assay: Inhibition of Rho-associated protein kinase isoform 1 (LANCE Ultra ULight-CREBtide FRET kinase assay); assay type: biochemical; settings: 30 μM was the highest concentration analyzed
Method: (§1) Exemplary compounds were tested for ability to inhibit Rho-associated protein kinase isoform 1 (ROCK1) and Rho-associated protein kinase isoform 2 (ROCK2). Assay procedures and results are described below.
(§2) Protein constructs were purified from a baculovirus expression system. The peptide substrate was fluorescent LANCE® Ultra ULight-CREBtide: […] (PerkinElmer, # TRF0107-D). […] After a 90 minute incubation at room temperature on a shaker table, the kinase reaction was stopped by addition of 10 mM EDTA, and phosphorylation of the substrate was detected by adding 1 nM LANCE® Ultra Europium-anti-phospho-CREB (ser133) antibody (PerkinElmer, # TRF0200-D) and incubating for 60 minutes on a shaker at room temperature. The flurorescence resonance energy transfer (FRET) signals were read and analyzed on an Envision™ 2103 Multilabel Reader (Perkin Elmer).

[2] = molecular target: GST-tagged human ROCK2 catalytic domain 1-553 (Homo sapiens (Human), UniProt O75116); assay: Inhibition of Rho-associated protein kinase isoform 2 (LANCE Ultra ULight-CREBtide FRET kinase assay); assay type: biochemical; settings: for IC50: 30 μM was the highest concentration analyzed; for Selectivity for ROCK2 over ROCK1 (IC50 ROCK1 / IC50 ROCK2): selectivity ROCK2 vs ROCK1
Method: as §1, §2

GST-tagged human ROCK1 catalytic domain 1-477, sequence (Q13464 1-477): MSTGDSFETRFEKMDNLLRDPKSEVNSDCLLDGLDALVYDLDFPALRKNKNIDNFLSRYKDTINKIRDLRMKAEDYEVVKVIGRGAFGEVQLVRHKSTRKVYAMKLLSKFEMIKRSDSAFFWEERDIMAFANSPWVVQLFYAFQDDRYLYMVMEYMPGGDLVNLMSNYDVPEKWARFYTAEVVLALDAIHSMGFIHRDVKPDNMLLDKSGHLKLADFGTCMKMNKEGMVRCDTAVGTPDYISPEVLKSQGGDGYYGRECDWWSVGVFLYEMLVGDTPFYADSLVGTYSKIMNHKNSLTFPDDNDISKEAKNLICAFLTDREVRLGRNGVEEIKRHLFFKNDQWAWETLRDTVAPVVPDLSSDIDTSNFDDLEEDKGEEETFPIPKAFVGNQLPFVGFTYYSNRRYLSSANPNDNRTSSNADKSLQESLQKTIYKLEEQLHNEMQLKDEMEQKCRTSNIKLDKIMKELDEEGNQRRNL
GST-tagged human ROCK2 catalytic domain 1-553, sequence (O75116 1-553): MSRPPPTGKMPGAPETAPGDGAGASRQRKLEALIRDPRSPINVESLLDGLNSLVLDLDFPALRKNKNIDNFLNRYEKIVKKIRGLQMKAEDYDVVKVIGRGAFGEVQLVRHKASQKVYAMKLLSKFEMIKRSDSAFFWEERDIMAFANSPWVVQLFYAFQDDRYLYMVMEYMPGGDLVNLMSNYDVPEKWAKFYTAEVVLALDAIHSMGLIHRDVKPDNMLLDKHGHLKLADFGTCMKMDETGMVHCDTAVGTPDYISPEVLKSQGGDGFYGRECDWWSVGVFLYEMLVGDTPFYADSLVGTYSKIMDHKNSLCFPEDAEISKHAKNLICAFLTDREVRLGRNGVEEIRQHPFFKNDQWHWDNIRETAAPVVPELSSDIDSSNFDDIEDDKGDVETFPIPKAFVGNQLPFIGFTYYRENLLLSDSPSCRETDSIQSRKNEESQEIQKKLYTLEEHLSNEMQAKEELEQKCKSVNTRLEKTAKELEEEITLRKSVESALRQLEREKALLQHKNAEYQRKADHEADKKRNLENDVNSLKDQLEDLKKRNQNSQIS

Compound	IC50 [1]	IC50 [2]	Selectivity for ROCK2 over ROCK1 (IC50 ROCK1 / IC50 ROCK2) [2]
Brc1ccc(-c2cn3cccc(-c4nnc(Nc5ccc6[nH]ncc6c5)s4)c3n2)cc1 [Example 52G]	> 30 µM	< 1 µM	>100
CC(=O)Nc1cc(-c2nnc(Nc3ccc4[nH]ncc4c3Cl)s2)ccc1CN(C)C [Example 48L]	1 to 15 µM	< 1 µM	>5
CC(C)(O)CNC(=O)c1cccc(-c2nnc(Nc3ccc4[nH]ncc4c3Cl)s2)c1 [Example 75F]	1 to 15 µM	< 1 µM	>5
CC(=O)Nc1cc(-c2nnc(Nc3ccc4[nH]ncc4c3Cl)s2)ccc1-c1ncco1 [Example 48P]	> 30 µM	< 1 µM	>100
O=C(Nc1cccc(-c2nnc(Nc3ccc4[nH]ncc4c3Cl)s2)c1)c1cnccn1 [Example 35BR]	> 30 µM	< 1 µM	>100
c1cc(-c2cnco2)cc(-c2nnc(Nc3ccc4[nH]ncc4c3)s2)c1 [Example A-26]	> 30 µM	> 30 µM	<5
Clc1c(Nc2nnc(-c3cccc(-c4nccn4C4COC4)c3)s2)ccc2[nH]ncc12 [Example 37, N-(4-Chloro-1H-indazol-5-yl)-5-(3-(1-(oxetan-3-yl)-1H-imidazol-2-yl)phenyl)-1,3,4-thiadiazol-2-amine]	> 30 µM	< 1 µM	>100
O=C(Nc1cccc(-c2nnc(Nc3ccc4[nH]ncc4c3Cl)s2)c1)C1CNC1 [Example 35AD]	1 to 15 µM	< 1 µM	>5
COc1cccc(-c2nnc(Nc3ccc4[nH]ncc4c3)s2)c1 [Example A-34]	> 30 µM	< 1 µM	>100
Cn1cc(CC(=O)Nc2cccc(-c3nnc(Nc4ccc5[nH]ncc5c4Cl)s3)c2)cn1 [Example 35BH]	< 1 µM	< 1 µM	>100
CC(C)c1cn2cccc(-c3nnc(Nc4ccc5[nH]ncc5c4Cl)s3)c2n1 [Example 52B]	< 1 µM	< 1 µM	<5
O=C(O)COc1cccc(-c2nnc(Nc3ccc4[nH]ncc4c3)s2)c1 [Example A-22]	1 to 15 µM	1 to 15 µM	>5
c1cc(-c2nnco2)cc(-c2nnc(Nc3ccc4[nH]ncc4c3)s2)c1 [Example A-6]	> 30 µM	> 30 µM	<5
O=C(Cc1ccc(F)cc1)Nc1cccc(-c2nnc(Nc3ccc4[nH]ncc4c3Cl)s2)c1 [Example 35BO]	< 1 µM	< 1 µM	>50
c1cnc(-c2nnc(Nc3ccc4[nH]ncc4c3)s2)cn1 [Example A-25]	> 30 µM	1 to 15 µM	>5
Nc1cncc(-c2nnc(Nc3ccc4[nH]ncc4c3)s2)n1 [Example A-13]	> 30 µM	1 to 15 µM	>5
CC(=O)Cc1cccc(-c2nnc(Nc3ccc4[nH]ncc4c3Cl)s2)c1 [Example 35AF]	1 to 15 µM	< 1 µM	>5
CC(=O)Nc1cccc(-c2nnc(Nc3ccc4[nH]ncc4c3C(C)C)s2)c1 [Example 35I]	> 30 µM	1 to 15 µM	>5
Cc1coc(-c2cc(-c3nnc(Nc4ccc5[nH]ncc5c4Cl)s3)ccn2)n1 [Example 40, N-(4-Chloro-1H-indazol-5-yl)-5-(2-(4-methyloxazol-2-yl)pyridin-4-yl)-1,3,4-thiadiazol-2-amine]	< 1 µM	< 1 µM	>5

Compound	IC50 [1]	IC50 [2]	Selectivity for ROCK2 over ROCK1 (IC50 ROCK1 / IC50 ROCK2) [2]
N[C@@H](Cc1ccc(O)cc1)C(=O)Nc1cccc(-c2nnc(Nc3ccc4[nH]ncc4c3Cl)s2)c1.O=C(O)C(F)(F)F [Example 35AK]	< 1 µM	< 1 µM	<5
c1cc(-c2nnc(Nc3ccc4[nH]ncc4c3)s2)cc(N2CCNCC2)c1 [Example 75H]	> 30 µM	1 to 15 µM	>5
NCCS(=O)(=O)Nc1cccc(-c2nnc(Nc3ccc4[nH]ncc4c3)s2)c1 [Example A-1]	1 to 15 µM	1 to 15 µM	<5
Cn1cc(CC(=O)Nc2cc(-c3nnc(Nc4ccc5[nH]ncc5c4Cl)s3)ccn2)cn1 [Example 36, N-(4-(5-((4-Chloro-1H-indazol-5-yl)amino)-1,3,4-thiadiazol-2-yl)pyridin-2-yl)-2-(1-methyl-1H-pyrazol-4-yl)acetamide]	< 1 µM	< 1 µM	>5
CC(C)NC(=O)COc1cncc(-c2nnc(Nc3ccc4[nH]ncc4c3)s2)c1 [Example 75L]	> 30 µM	–	>75
O=C(Cc1ncc[nH]1)Nc1cccc(-c2nnc(Nc3ccc4[nH]ncc4c3Cl)s2)c1 [Example 35BD]	> 30 µM	< 1 µM	>100
CC(C)n1ccnc1-c1cccc(-c2nnc(Nc3ccc4[nH]ncc4c3Cl)s2)c1.O=C(O)C(F)(F)F [Example 46A]	< 1 µM	< 1 µM	>5
FC(F)(F)c1cn2cccc(-c3nnc(Nc4ccc5[nH]ncc5c4Cl)s3)c2n1 [Example 52C]	> 30 µM	< 1 µM	>100
CC(=O)Nc1cccc(-c2nnc(N(C)c3ccc4[nH]ncc4c3Cl)s2)c1 [Example 35BC]	> 30 µM	< 1 µM	>75
CCS(=O)(=O)Nc1cccc(-c2nnc(Nc3ccc4[nH]ncc4c3)s2)c1 [Example A-8]	> 30 µM	1 to 15 µM	>5
CC(=O)c1cc(-c2nnc(Nc3ccc4[nH]ncc4c3Cl)s2)ccn1 [Example 35CV]	1 to 15 µM	< 1 µM	>50
CN(c1nnc(-c2cccc(NC(=O)Cc3ccc(C#N)cc3)c2)s1)c1ccc2[nH]ncc2c1Cl [Example 54B]	> 30 µM	15 to 30 µM	<5
NC(=O)c1cc(-c2ncco2)cc(-c2nnc(Nc3ccc4[nH]ncc4c3Cl)s2)c1 [Example 46L]	> 30 µM	< 1 µM	>100
Cn1ccnc1CC(=O)Nc1cccc(-c2nnc(Nc3ccc4[nH]ncc4c3Cl)s2)c1 [Example 35BL]	> 30 µM	< 1 µM	>100
Nc1cncc(-c2nnc(Nc3ccc4[nH]ncc4c3)s2)c1 [Example A-24]	< 1 µM	< 1 µM	<5
O=C(O)c1ccc(-c2cn3cccc(-c4nnc(Nc5ccc6[nH]ncc6c5Cl)s4)c3n2)cc1 [Example 50E]	> 30 µM	< 1 µM	>100
CCS(=O)(=O)Nc1cncc(-c2nnc(Nc3ccc4[nH]ncc4c3)s2)c1 [Example A-14]	1 to 15 µM	1 to 15 µM	>5
Clc1c(Nc2nnc(-c3cccc4c3OCCO4)s2)ccc2[nH]ncc12 [Example 75E]	> 30 µM	> 30 µM	–
CC1(C)CN=C(c2cccc(-c3nnc(Nc4ccc5[nH]ncc5c4Cl)s3)c2)O1 [Example 75Q]	1 to 15 µM	< 1 µM	>5
